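Values below derive from 48-hour exposures of cells grown in 96-well plates, with endpoints linearly interpolated between the two concentrations bracketing the appropriate inhibition level. GI50 marks 50% less growth.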 Active and inactive are the calls of the source. Rule as the data show it: active = GI50 up to about 1.1 µM and inactive = higher.
Tests used:
Assay in all cases: NCI tumour cell line growth inhibition, 48 h
OVCAR-4 = system: OVCAR-4
SK-MEL-28 = system: SK-MEL-28
OVCAR-5 = system: OVCAR-5
SN12C = system: SN12C
TK-10 = system: TK-10
SF-268 = system: SF-268
HOP-62 = system: HOP-62
HT-29 = system: HT-29
MDA-MB-231 = system: MDA-MB-231
HOP-92 = system: HOP-92
786-0 = system: 786-0
SF-295 = system: SF-295
A498 = system: A498
SF-539 = system: SF-539
DU-145 = system: DU-145
SNB-19 = system: SNB-19
HCC 2998 = system: HCC 2998
NCI-H226 = system: NCI-H226
SW-620 = system: SW-620
HCT-116 = system: HCT-116
OVCAR-8 = system: OVCAR-8
K562 = system: K562
RXF 393 = system: RXF 393
Malme-3M = system: Malme-3M
U-251 = system: U-251
NCI-H23 = system: NCI-H23
T47D = system: T47D
A549 = system: A549
ACHN = system: ACHN
PC-3 = system: PC-3
IGROV-1 = system: IGROV-1
OVCAR-3 = system: OVCAR-3
UACC-257 = system: UACC-257
SK-OV-3 = system: SK-OV-3
MDA-N = system: MDA-N
UACC-62 = system: UACC-62
NCI-H460 = system: NCI-H460
M14 = system: M14
SR = system: SR
Hs-578T = system: Hs-578T
LOX IMVI = system: LOX IMVI
MCF7 = system: MCF7
NCI-H522 = system: NCI-H522
UO-31 = system: UO-31
EKVX = system: EKVX
SK-MEL-5 = system: SK-MEL-5
BT-549 = system: BT-549
MDA-MB-435 = system: MDA-MB-435
SK-MEL-2 = system: SK-MEL-2
SNB-75 = system: SNB-75
KM12 = system: KM12
MOLT-4 = system: MOLT-4
NCI/ADR-RES = system: NCI/ADR-RES
COLO 205 = system: COLO 205
CAKI-1 = system: CAKI-1
RPMI-8226 = system: RPMI-8226
HCT-15 = system: HCT-15
HL-60 = system: HL-60
CCRF-CEM = system: CCRF-CEM

Measured: GI50

N#CNC(=N)Nc1ccc(Cl)cc1
> 100 µM: HCT-15
inactive: OVCAR-4 > 100 µM | SK-MEL-28 > 100 µM | OVCAR-5 > 100 µM | SN12C > 100 µM | TK-10 > 100 µM | SF-268 > 100 µM | HOP-62 > 100 µM | HT-29 > 100 µM | MDA-MB-231 > 100 µM | HOP-92 > 100 µM | 786-0 > 100 µM | SF-295 > 100 µM | A498 > 100 µM | SF-539 > 100 µM | DU-145 > 100 µM | SNB-19 > 100 µM | HCC 2998 > 100 µM | NCI-H226 85.1 µM | SW-620 > 100 µM | HCT-116 > 100 µM | OVCAR-8 > 100 µM | K562 > 100 µM | RXF 393 > 100 µM | Malme-3M > 100 µM | U-251 > 100 µM | NCI-H23 > 100 µM | T47D > 100 µM | A549 > 100 µM | ACHN > 100 µM | PC-3 > 100 µM | IGROV-1 > 100 µM | OVCAR-3 > 100 µM | UACC-257 > 100 µM | SK-OV-3 > 100 µM | MDA-N > 100 µM | UACC-62 > 100 µM | NCI-H460 > 100 µM | M14 > 100 µM | SR > 100 µM | Hs-578T > 100 µM | LOX IMVI > 100 µM | MCF7 > 100 µM | NCI-H522 > 100 µM | UO-31 > 100 µM | EKVX > 100 µM | SK-MEL-5 > 100 µM | BT-549 > 100 µM | MDA-MB-435 > 100 µM | SK-MEL-2 > 100 µM | SNB-75 > 100 µM | KM12 > 100 µM | MOLT-4 36.4 µM | NCI/ADR-RES > 100 µM | COLO 205 > 100 µM | CAKI-1 > 100 µM | RPMI-8226 > 100 µM

CCCNc1ncnc2[nH]ncc12
inactive: OVCAR-4 > 100 µM | SK-MEL-28 > 100 µM | OVCAR-5 > 100 µM | SN12C > 100 µM | TK-10 > 100 µM | SF-268 > 100 µM | HOP-62 > 100 µM | HT-29 > 100 µM | MDA-MB-231 > 100 µM | HOP-92 87.5 µM | 786-0 > 100 µM | SF-295 > 100 µM | A498 > 100 µM | SF-539 > 100 µM | DU-145 > 100 µM | SNB-19 > 100 µM | HCC 2998 > 100 µM | SW-620 > 100 µM | HCT-116 > 100 µM | OVCAR-8 > 100 µM | K562 > 100 µM | RXF 393 > 100 µM | Malme-3M > 100 µM | U-251 > 100 µM | NCI-H23 > 100 µM | T47D > 100 µM | A549 > 100 µM | ACHN > 100 µM | HL-60 > 100 µM | PC-3 > 100 µM | IGROV-1 > 100 µM | OVCAR-3 > 100 µM | UACC-257 > 100 µM | CCRF-CEM > 100 µM | SK-OV-3 > 100 µM | MDA-N > 100 µM | UACC-62 > 100 µM | NCI-H460 > 100 µM | M14 > 100 µM | SR > 100 µM | Hs-578T > 100 µM | LOX IMVI > 100 µM | MCF7 91.4 µM | NCI-H522 > 100 µM | UO-31 > 100 µM | EKVX > 100 µM | SK-MEL-5 > 100 µM | BT-549 > 100 µM | MDA-MB-435 > 100 µM | SK-MEL-2 > 100 µM | SNB-75 > 100 µM | KM12 > 100 µM | MOLT-4 > 100 µM | NCI/ADR-RES > 100 µM | COLO 205 > 100 µM | CAKI-1 > 100 µM | RPMI-8226 > 100 µM
> 100 µM: HCT-15

Cc1cc2ccccc2c[n+]1CC(O)C[n+]1cc2ccccc2cc1C
> 100 µM: HCT-15
inactive: OVCAR-4 > 100 µM | SK-MEL-28 > 100 µM | OVCAR-5 > 100 µM | SN12C > 100 µM | TK-10 > 100 µM | SF-268 > 100 µM | HOP-62 82.6 µM | HT-29 > 100 µM | MDA-MB-231 > 100 µM | HOP-92 > 100 µM | 786-0 > 100 µM | SF-295 20.1 µM | A498 > 100 µM | SF-539 > 100 µM | DU-145 > 100 µM | SNB-19 > 100 µM | HCC 2998 > 100 µM | NCI-H226 > 100 µM | SW-620 > 100 µM | HCT-116 > 100 µM | OVCAR-8 > 100 µM | K562 > 100 µM | RXF 393 > 100 µM | Malme-3M > 100 µM | U-251 > 100 µM | NCI-H23 > 100 µM | T47D > 100 µM | A549 > 100 µM | ACHN > 100 µM | PC-3 > 100 µM | IGROV-1 > 100 µM | OVCAR-3 51.6 µM | UACC-257 > 100 µM | MDA-N > 100 µM | UACC-62 > 100 µM | NCI-H460 > 100 µM | M14 > 100 µM | SR > 100 µM | Hs-578T > 100 µM | LOX IMVI > 100 µM | MCF7 > 100 µM | NCI-H522 > 100 µM | UO-31 > 100 µM | EKVX > 100 µM | SK-MEL-5 > 100 µM | BT-549 > 100 µM | MDA-MB-435 > 100 µM | SK-MEL-2 > 100 µM | SNB-75 > 100 µM | KM12 > 100 µM | MOLT-4 > 100 µM | NCI/ADR-RES > 100 µM | COLO 205 > 100 µM | CAKI-1 > 100 µM | RPMI-8226 > 100 µM

From ChEMBL document CHEMBL1201862, “PubChem BioAssay data set” (2004)
